Here are results for 25 compounds from patent US20260297092A1, “PYRAZOLOPYRIMIDINE DERIVATIVES AS INHIBITORS OF NLRP3” (Takeda Pharmaceutical Company Limited, priority 2023, published 2026).

The IC50 is the concentration at which inhibition is half-maximal. Read a low IC50 as greater potency in that assay.

Test [1] deals with TNF-α (NF-κB pathway, THP-1 cells). In words: TNF-α Assay (IC50). It counts as cell-based, human. As to conditions: Homo sapiens, 600 ng/mL LPS, 3 hours. The gist of the method: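 THP-1 cells differentiated to macrophages with 25 ng/mL IFN for 24 h, plated 40,000/well in serum-free medium, preincubated with compounds 30 min at 37 °C, then stimulated with 600 ng/mL LPS for 3 h. Supernatant TNF-α measured by ELISA; IC50 from four-parameter logistic fit, 100% inhibition defined by TPCA-1.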

Test [2] concerns NLRP3 inflammasome (IL-1β production in THP-1 cells). The test is described as follows: IL-1β TR-FRET Assay (percentage of inhibition at 300 nM, 6 μM or 10 μM). As to conditions: LPS priming, ATP activation; for inhibition at 0.3 µM: THP-1, 300 nM, read-out: IL-1β inhibitory rate at 300 nM (%); for inhibition at 6 µM: THP-1, 6 μM, read-out: IL-1β inhibitory rate at 6 μM (%). The class given is cell-based, human. The gist of the method:
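THP-1 cells were differentiated with 25 ng/mL IFN-γ for 24 h, primed with 50 ng/mL LPS in serum-free medium for 24 h, then given compound for 30 min before 20 mM ATP for 2 h. Supernatant IL-1β was measured by HTRF after 16-24 h at room temperature. Inhibition was normalized between DMSO (high) and 3 μM MCC-950 (low).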
Background: TR-FRET usually uses a lanthanide donor and a delayed reading to cut background.

Some results are limits rather than exact numbers.

Consider `Cc1cc(C2CC2)cc(C)c1-n1cc2c(=O)[nH]c(C3CCCO3)nc2n1` (single isomer, unassigned) [Example 227, 2-(4-cyclopropyl-2,6-dimethylphenyl)-6-[(2R)-oxolan-2-yl]-2,5-dihydro-4H-pyrazolo[3,4-d]pyrimidin-4-one or 2-(4-cyclopropyl-2,6-dimethylphenyl)-6-[(2S)-oxolan-2-yl]-2,5-dihydro-4H-pyrazolo[3,4-d]pyrimidin-4-one (HPLC Method A: tR1)], for which the half-inhibitory concentration (IC50) in test [1] is over 30 µM. Besides, the “IL-1β inhibitory rate at 300 nM (%)” value in test [2] (300 nM, 0.3 µM) stood at 100%.

`CO[C@@H](C)COc1nc2nn(-c3c(F)cc(C4CC4)cc3C(F)F)cc2c(=O)[nH]1` [Example 203, 2-[4-cyclopropyl-2-(difluoromethyl)-6-fluorophenyl]-6-[(2S)-2-methoxypropoxy]-2,5-dihydro-4H-pyrazolo[3,4-d]pyrimidin-4-one] returned an IC50 in test [1] of over 30 µM. In addition, the inhibition at 0.3 µM in test [2] (Homo sapiens) is 99%.

In test [1], `Cc1cc(C2CC2)cc(C(F)F)c1-n1cc2c(=O)[nH]c(COC(F)F)nc2n1` [Example 283, 2-[4-cyclopropyl-2-(difluoromethyl)-6-methylphenyl]-6-[(difluoromethoxy)methyl]-2,5-dihydro-4H-pyrazolo[3,4-d]pyrimidin-4-one] yielded a 50% inhibitory concentration (IC50) of over 30 µM. For the same compound, in test [2] (Homo sapiens), the inhibition at 6 µM was found to be 99%.

With `CCOc1nc2nn(-c3c(C)cc(Br)cc3-n3cccn3)cc2c(=O)[nH]1` [Example 144, 2-[4-bromo-2-methyl-6-(1H-pyrazol-1-yl)phenyl]-6-ethoxy-2,5-dihydro-4H-pyrazolo[3,4-d]pyrimidin-4-one], the half-inhibitory concentration (IC50) in test [1] is over 30 µM. Further, in test [2] (Homo sapiens), the inhibition at 0.3 µM was found to be 96%.

For `COCCc1nc2nn(-c3c(C)cc(C)cc3O)cc2c(=O)[nH]1` [Example 38, 2-(2-hydroxy-4,6-dimethylphenyl)-6-(2-methoxyethyl)-2,5-dihydro-4H-pyrazolo[3,4-d]pyrimidin-4-one], the concentration for half-maximal inhibition (IC50) in test [1] was over 30 µM. The inhibition at 0.3 µM in test [2] (Homo sapiens) is 100%.

For `CCOc1nc2nn(-c3ccc(C)cc3OC(F)F)cc2c(=O)[nH]1` [Example 83, 2-[2-(difluoromethoxy)-4-methylphenyl]-6-ethoxy-2,5-dihydro-4H-pyrazolo[3,4-d]pyrimidin-4-one], the IC50 in test [1] was over 30 µM. The inhibition at 0.3 µM in test [2] (Homo sapiens) came to 99%.

With `CCOc1nc2nn(-c3c(C)cc(-n4cccn4)cc3C)cc2c(=O)[nH]1` [Example 139, 2-[2,6-dimethyl-4-(1H-pyrazol-1-yl)phenyl]-6-ethoxy-2,5-dihydro-4H-pyrazolo[3,4-d]pyrimidin-4-one], the IC50 in test [1] is over 30 µM. In test [2] (Homo sapiens, THP-1, 10 μM, read-out: IL-1β inhibitory rate at 10 μM (%)), the inhibition at 10 µM worked out at 95%.

In turn, `Cc1nc(-c2nc3nn(-c4c(F)cc(C5CC5)cc4C(F)F)cc3c(=O)[nH]2)co1` [Example 298, 2-[4-cyclopropyl-2-(difluoromethyl)-6-fluorophenyl]-6-(2-methyl-1,3-oxazol-4-yl)-2,5-dihydro-4H-pyrazolo[3,4-d]pyrimidin-4-one] registered a concentration for half-maximal inhibition (IC50) in test [1] of over 30 µM. In addition, the inhibition at 6 µM in test [2] (Homo sapiens) came to 99%.

In test [1], `COCc1nc2nn(-c3c(C)cc(C4CC4)cc3C(F)F)cc2c(=O)[nH]1` [Example 321, 2-[4-cyclopropyl-2-(difluoromethyl)-6-methylphenyl]-6-(methoxymethyl)-2,5-dihydro-4H-pyrazolo[3,4-d]pyrimidin-4-one] yielded an IC50 of over 30 µM. The inhibition at 6 µM in test [2] (Homo sapiens) amounted to 103%.

On to `CCOc1nc2nn(-c3c(C)ccc(C)c3O)cc2c(=O)[nH]1` [Example 16, 6-ethoxy-2-(2-hydroxy-3,6-dimethylphenyl)-2,5-dihydro-4H-pyrazolo[3,4-d]pyrimidin-4-one], for which the concentration for half-maximal inhibition (IC50) in test [1] is over 30 µM. The inhibition at 0.3 µM in test [2] (Homo sapiens) turned out to be 101%.

`CCOc1nc2nn(-c3c(C)cc(OC(F)F)cc3C)cc2c(=O)[nH]1` [Example 147, 2-[4-(difluoromethoxy)-2,6-dimethylphenyl]-6-ethoxy-2,5-dihydro-4H-pyrazolo[3,4-d]pyrimidin-4-one] yielded a half-inhibitory concentration (IC50) in test [1] of over 30 µM. The inhibition at 0.3 µM in test [2] (Homo sapiens) came to 103%.

In test [1], `Cc1nccc(-c2nc3nn(-c4c(C)cc(C5CC5)cc4C)cc3c(=O)[nH]2)n1` [Example 287, 2-(4-cyclopropyl-2,6-dimethylphenyl)-6-(2-methylpyrimidin-4-yl)-2,5-dihydro-4H-pyrazolo[3,4-d]pyrimidin-4-one] had an IC50 of over 30 µM. In test [2] (Homo sapiens), the inhibition at 6 µM is 99%.

`CCOc1nc2nn(-c3c(F)cc(Br)cc3C(F)(F)F)cc2c(=O)[nH]1` [Example 19, 2-[4-bromo-2-fluoro-6-(trifluoromethyl)phenyl]-6-ethoxy-2,5-dihydro-4H-pyrazolo[3,4-d]pyrimidin-4-one] registered an IC50 in test [1] of over 30 µM. For the same compound, in test [2] (Homo sapiens), the inhibition at 0.3 µM was found to be 95%.

Turning to `Cc1cc(C)c(-n2cc3c(=O)[nH]c(CN4CCOCC4)nc3n2)c(O)c1` [Example 62, 2-(2-hydroxy-4,6-dimethylphenyl)-6-[(morpholin-4-yl)methyl]-2,5-dihydro-4H-pyrazolo[3,4-d]pyrimidin-4-one], in test [1], the IC50 is over 30 µM. Also, the inhibition at 0.3 µM in test [2] (Homo sapiens) came to 95%.

With `Cc1cc(C2CC2)cc(C)c1-n1cc2c(=O)[nH]c([C@H]3C[C@@H](F)C3)nc2n1` [Example 249, 2-(4-cyclopropyl-2,6-dimethylphenyl)-6-[(1s,3s)-3-fluorocyclobutyl]-2,5-dihydro-4H-pyrazolo[3,4-d]pyrimidin-4-one], the half-inhibitory concentration (IC50) in test [1] was over 30 µM. The inhibition at 6 µM in test [2] (Homo sapiens) was determined as 98%.

For `COc1nc2nn(-c3c(F)cc(C4CC4)cc3C(F)F)cc2c(=O)[nH]1` [Example 193, 2-[4-cyclopropyl-2-(difluoromethyl)-6-fluorophenyl]-6-methoxy-2,5-dihydro-4H-pyrazolo[3,4-d]pyrimidin-4-one], the IC50 in test [1] is over 30 µM. Moreover, the inhibition at 0.3 µM in test [2] (Homo sapiens) worked out at 101%.

Compound `CCOc1nc2nn(-c3c(C)cc(C)cc3C(F)F)cc2c(=O)[nH]1` [Example 159, 2-[2-(difluoromethyl)-4,6-dimethylphenyl]-6-ethoxy-2,5-dihydro-4H-pyrazolo[3,4-d]pyrimidin-4-one] came in with an IC50 in test [1] of over 30 µM. The inhibition at 0.3 µM in test [2] (Homo sapiens) came to 103%.

In test [1], `COc1nc2nn(-c3c(C)cc(C4CC4)cc3OC(F)F)cc2c(=O)[nH]1` [Example 252, 2-[4-cyclopropyl-2-(difluoromethoxy)-6-methylphenyl]-6-methoxy-2,5-dihydro-4H-pyrazolo [3,4-d]pyrimidin-4-one] displayed an IC50 of over 30 µM. Further, in test [2] (Homo sapiens), the inhibition at 6 µM was 103%.

Compound `O=c1[nH]c(C2CCOC2)nc2nn(-c3c(F)cc(C4CC4)cc3C(F)F)cc12` (centres unmarked) [Example 296, 2-[4-cyclopropyl-2-(difluoromethyl)-6-fluorophenyl]-6-(oxolan-3-yl)-2,5-dihydro-4H-pyrazolo [3,4-d]pyrimidin-4-one] yielded an IC50 in test [1] of over 30 µM. In test [2] (Homo sapiens), the inhibition at 6 µM stood at 104%.

`CO[C@H]1CCCC[C@@H]1c1nc2nn(-c3c(C)cc(C)cc3O)cc2c(=O)[nH]1` (racemic) [Example 36, racemic mixture of 2-(2-hydroxy-4,6-dimethylphenyl)-6-[(1R,2S)-2-methoxycyclohexyl]-2,5-dihydro-4H-pyrazolo[3,4-d]pyrimidin-4-one and 2-(2-hydroxy-4,6-dimethylphenyl)-6-[(1S,2R)-2-methoxycyclohexyl]-2,5-dihydro-4H-pyrazolo [3,4-d]pyrimidin-4-one] showed an IC50 in test [1] of over 30 µM. Also, the inhibition at 0.3 µM in test [2] (Homo sapiens) turned out to be 97%.

In test [1], `CO[C@@H]1CC[C@H]1c1nc2nn(-c3c(C)cc(C4CC4)cc3C)cc2c(=O)[nH]1` (racemic) [Example 253, racemic mixture of 2-(4-cyclopropyl-2,6-dimethylphenyl)-6-[(1R,2S)-2-methoxycyclobutyl]-2,5-dihydro-4H-pyrazolo[3,4-d]pyrimidin-4-one and 2-(4-cyclopropyl-2,6-dimethylphenyl)-6-[(1S,2R)-2-methoxycyclobutyl]-2,5-dihydro-4H-pyrazolo[3,4-d]pyrimidin-4-one] displayed a half-maximal inhibitory concentration (IC50) of over 30 µM. Besides, the inhibition at 6 µM in test [2] (Homo sapiens) was found to be 95%.

In test [1], `COc1nc2nn(-c3c(C)cc(C4CC4)cc3C)cc2c(=O)[nH]1` [Example 146, 2-(4-cyclopropyl-2,6-dimethylphenyl)-6-methoxy-2,5-dihydro-4H-pyrazolo[3,4-d]pyrimidin-4-one] showed an IC50 of over 30 µM. For the same compound, in test [2] (Homo sapiens), the inhibition at 0.3 µM was 94%.

In turn, `Cc1cc(C2CC2)cc(C)c1-n1cc2c(=O)[nH]c(-c3cn(C)nn3)nc2n1` [Example 229, 2-(4-cyclopropyl-2,6-dimethylphenyl)-6-(1-methyl-1H-1,2,3-triazol-4-yl)-2,5-dihydro-4H-pyrazolo[3,4-d]pyrimidin-4-one] registered an IC50 in test [1] of over 30 µM. The inhibition at 0.3 µM in test [2] (Homo sapiens) was found to be 99%.

On to `Cc1cc(C2CC2)cc(C)c1-n1cc2c(=O)[nH]c(-c3ccncn3)nc2n1` [Example 171, 2-(4-cyclopropyl-2,6-dimethylphenyl)-6-(pyrimidin-4-yl)-2,5-dihydro-4H-pyrazolo[3,4-d]pyrimidin-4-one], for which, in test [1], the half-inhibitory concentration (IC50) is over 30 µM. The inhibition at 0.3 µM in test [2] (Homo sapiens) amounted to 100%.

Turning to `Cc1cc(C)c(-n2cc3c(=O)[nH]c(C4CC4)nc3n2)c(O)c1` [Example 6, 6-cyclopropyl-2-(2-hydroxy-4,6-dimethylphenyl)-2,5-dihydro-4H-pyrazolo[3,4-d]pyrimidin-4-one], in test [1], the half-maximal inhibitory concentration (IC50) is over 30 µM. In addition, the inhibition at 0.3 µM in test [2] (Homo sapiens) came out at 98%.
